{"source": "patent US12337023B2", "about": "“Methods and compositions for the prevention and treatment of disease” (Stealth BioTherapeutics Inc., priority 2014, dated 2025)", "key": {"[1]": {"target": "mu-opioid receptor (Homo sapiens, UniProt P35372)", "sequence (P35372 whole entry, species assumed)": "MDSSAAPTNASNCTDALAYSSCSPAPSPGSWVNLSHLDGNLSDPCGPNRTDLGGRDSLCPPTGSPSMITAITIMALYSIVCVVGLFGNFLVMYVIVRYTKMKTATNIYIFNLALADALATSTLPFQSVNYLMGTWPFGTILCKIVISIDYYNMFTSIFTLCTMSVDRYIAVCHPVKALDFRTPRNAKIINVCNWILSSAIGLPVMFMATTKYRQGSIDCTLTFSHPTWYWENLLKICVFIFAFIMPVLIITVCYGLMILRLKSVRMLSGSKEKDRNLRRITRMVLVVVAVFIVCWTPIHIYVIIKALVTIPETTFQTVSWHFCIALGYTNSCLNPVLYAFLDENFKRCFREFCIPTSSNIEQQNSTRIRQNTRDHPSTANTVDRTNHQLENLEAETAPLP", "conditions": "stated in the description, no test described; cited from earlier work"}, "[2]": {"conditions": "Col4a3 null mice, daily 5 mg/kg, 15 weeks of age, 30 minutes after the last injection; compared with 5 mg/kg at 6 weeks and 1 mg/kg at 15 weeks", "method": "Homozygous male Col4a3 null mice and wild-type litter mates were used in this study. Subjects were divided into the following groups: • (1) Healthy wild-type controls • (2) Col4a3 null mice treated with water • (3) Col4a3 null mice treated with 1 mg/kg D-Arg-2′6′-Dmt-Lys-Phe-NH2 • (4) Col4a3 null mice treated with 5 mg/kg D-Arg-2′6′-Dmt-Lys-Phe-NH2 • (5) Col4a3 null mice treated with 5 mg/kg D-Arg-2′6′-Dmt-Lys-Phe-NH2 (Pharmacokinetics group)\nGroups (1)-(4) consisted of 16 mice, out of which 10 were used for survival rate studies and 6 for pathology and RNA/protein analysis. Group (5) consisted of 6 mice, 3 of which were sacrificed at 30 minutes after the 7th injection (age, 6 weeks), and 3 at 24 hours after the 7th injection (age, 6 weeks)."}, "[3]": {"system": "Col4a3 null mice (Alport mice)", "experiment": "Survival of Col4a3 null mice (Alport Syndrome mouse model)", "format": "in vivo", "conditions": "1 mg/kg or 5 mg/kg once daily subcutaneous", "description": "Six animals from experimental groups (1)-(4) were sacrificed for tissue collection at week 15. One kidney from each animal was harvested for protein/RNA analysis and the second kidney was collected for paraffin sections for analysis via microscopy. Survival data was collected for the remaining 10 animals in groups (1)-(4)."}, "[4]": {"system": "several mammalian cell types", "conditions": "energy-independent manner (Zhao, et al., 2003); cited from earlier work"}}, "note": "Non-standard residues stand in square brackets, D forms with d. Residues, ends and D or L forms follow the SMILES beside them. No end group written: not given here. Dmt = Cc1cc(O)cc(C)c1C[C@H](N)C(=O)O", "data": [{"compound": "F[dR]FK-NH2", "values": [{"measurement": "mu-opioid receptor agonist activity", "setting": "[1]", "result": "does not have mu-opioid receptor agonist activity"}]}, {"compound": "Tyr-D-Arg-Phe-Lys-NH2", "values": [{"measurement": "mu-opioid receptor agonist activity", "setting": "[1]", "result": "has mu-opioid receptor agonist activity"}]}, {"compound": "Cc1cc(O)cc(C)c1C[C@H](NC(=O)[C@H](N)CCCNC(=N)N)C(=O)N[C@@H](CCCCN)C(=O)N[C@@H](Cc1ccccc1)C(N)=O", "note": "[D-Arg-2′,6′-Dmt-Lys-Phe-NH2] (H-[dR][Dmt]KF-NH2)", "values": [{"measurement": "plasma levels", "setting": "[2]", "result": "highest"}, {"measurement": "harm of peptide administration", "setting": "[3]", "result": "not harmful"}]}, {"compound": "2′,6′-Dmt-D-Arg-Phe-Lys-NH2", "values": [{"measurement": "penetration of the plasma membrane", "setting": "[4]", "result": "readily penetrates the plasma membrane"}]}]}
